A short description of the series: Human HepG2 cell viability assay in 384 well format. Type of series: toxicity, cell-based. Further details: dose 125 nL, time 70.5 hour; cytotoxicity at 70.5 h: concentration not given beside the values. As to conditions: HepG2 cells, read-out: Inhibition.

Regarding `CCC1=N[C@@]2(CC[C@@H]3CN(C(=O)NCc4ccccc4)C[C@@H]32)C(=O)N1`, the cytotoxicity at 70.5 h is -7.28%.
Consider `CCn1cc2c(n1)C(COC)CN(Cc1ccccn1)C2` (configuration not stated), for which the cytotoxicity at 70.5 h is 29.7%.
Take `Cc1ccc(S(=O)(=O)N2CCC3(CC(C(=O)NCC4CC4)=NO3)C2)cc1` (configuration not stated): the cytotoxicity at 70.5 h is -8.09%.
As for `CC(C)NC(=O)N1CCC2(CC(=O)N(c3cccc(C#N)c3)C2)C1` (configuration not stated), the figure is 2.44%; as for `O=C(NCc1ccccc1)[C@H]1C[C@@H]2CN(S(=O)(=O)C3CC3)C[C@H]1O2`, -10.1%.
On to `CNC(=O)N1C[C@H]2C[C@H](C(=O)Nc3ccccc3)[C@@H](C1)O2`, for which the cytotoxicity at 70.5 h was -7.41%.
Consider `c1cnc(OCc2nnc3n2CCN(CC2CC2)C3)nc1`, for which the cytotoxicity at 70.5 h turned out to be 0.759%.
The result for `C1CC(CN2CCOCC3(CCN(C4CCOCC4)C3)C2)CCO1` (configuration not stated) reads -6.07%; that for `CCc1ccc(S(=O)(=O)N2CCC3(CC(C(=O)NC)=NO3)C2)cc1` (configuration not stated), -10.7%; that for `O=C(NCC1CC1)[C@H]1C[C@H]2OCC[C@H]2N(Cc2ccsc2)C1`, -4.19%.
For `CN(C)CC(=O)N1CCC2(CCN(Cc3ccccn3)C2=O)C1` (configuration not stated), the cytotoxicity at 70.5 h is -22.9%.
As for `O=C1CC(c2ccncc2)C2(CCN(CCO)CC2)N1` (configuration not stated), the figure is -10.4%.
Take `COCC(=O)N1CCC2(CCN(Cc3ccccn3)CC2)CC1`: the cytotoxicity at 70.5 h was -23.5%.
The result for `O=C1NCCN(CC2CC2)C12CCN(Cc1ccc3c(c1)OCO3)CC2` reads 41.2%; that for `O=C1NCCN(CC2CC2)C12CCN(Cc1ccco1)CC2`, 12.8%; that for `O=C(c1ccco1)N1CCC2(CC1)C(=O)NCCN2CC1CC1`, -26.8%.
As for `CCOC1COC2(CCN(S(=O)(=O)c3cccc(F)c3)CC2)C1` (configuration not stated), the cytotoxicity at 70.5 h is -15.5%.
Regarding `CNc1cc(-c2ccncc2)ncn1`, the cytotoxicity at 70.5 h turned out to be 23.1%.
Consider `Cc1ncncc1-c1ccnc(N)n1`, for which the cytotoxicity at 70.5 h is -2.72%.
`Cc1ncncc1-c1ccnc(N(C)C)n1`: the cytotoxicity at 70.5 h is -1.27%.
Turning to `C[C@@H](CO)Nc1cc(-c2cn[nH]c2)ncn1`, the cytotoxicity at 70.5 h is -0.96%.
Take `Cc1ccnc(N2CCC(C(N)=O)CC2)n1`: the cytotoxicity at 70.5 h is 32.9%.
On to `CC[C@@H](CO)Nc1cc(-c2cn[nH]c2)ncn1`, for which the cytotoxicity at 70.5 h amounted to 3.42%.
`CCN1CC(=O)c2sc(NC(C)C)nc2C1`: the cytotoxicity at 70.5 h was determined as 5.33%.
As for `CC(C)(CO)Nc1cc(-c2ccccc2)ncn1`, the figure is -2.92%; as for `CC(=O)NCC[C@H]1CC(C)(C)Oc2ccccc21`, -4.17%; as for `CC(C)(C)CCNc1nccc(-c2c[nH][nH]c2=O)n1`, -4.19%.
With `CC(C)Nc1nc2c(s1)C(=O)CN(CC1CC1)C2`, the cytotoxicity at 70.5 h was found to be 2.03%.
Take `OCCNc1nccc(-c2c[nH]nc2-c2ccco2)n1`: the cytotoxicity at 70.5 h was 4.01%.
As for `CN(C)c1ncc2c(n1)N(C)CCN(CC1CC1)C2=O`, the figure is -2.69%; as for `COc1ccc2c(c1)[C@@H](CCNC(C)=O)CC(C)(C)O2`, -1.01%.
In the case of `O=c1[nH][nH]cc1-c1ccnc(NCCc2cccnc2)n1`, the cytotoxicity at 70.5 h is -2.07%.
The result for `O=c1[nH][nH]cc1-c1ccnc(NCCN2CCCCC2)n1` reads 30.8%; that for `c1cc(-c2n[nH]cc2-c2ccnc(N3CCCC3)n2)ccn1`, -2.36%.
On to `O=c1[nH][nH]cc1-c1ccnc(NCCCN2CCOCC2)n1`, for which the cytotoxicity at 70.5 h is -1.38%.
For the compound `Cc1ncc(-c2ccnc(NC3CC3)n2)c(-c2cccnc2)n1`, the cytotoxicity at 70.5 h turned out to be 14.2%.
On to `CC(=O)Nc1nc2c(s1)C(C)(C)Nc1ccccc1S2`, for which the cytotoxicity at 70.5 h was -2.23%.
As for `COc1ccc2[nH]cc(-c3ccnc(NC4CCCC4)n3)c2c1`, the figure is -0.782%; as for `N[C@@H]1CCN(Cc2cc(-c3ccccc3OC(F)(F)F)no2)C[C@H]1O`, -10.6%.
As for `Nc1cc(-c2nccnc2N2CCCC2)c2cc[nH]c2n1`, the figure is -11.5%.
For `COc1ccccc1OCCCc1cncc(C(N)=O)c1`, the cytotoxicity at 70.5 h is -14.6%.
On to `Cc1nonc1C1CCCN1C(=O)CCc1cc2n(n1)CCCNC2` (configuration not stated), for which the cytotoxicity at 70.5 h is -7.72%.
Consider `COc1cc(CN2CCCC2)ccc1Oc1ncccc1C(F)(F)F`, for which the cytotoxicity at 70.5 h stood at 28.7%.
Take `O=C(CN1CCOCS1(=O)=O)NCc1ccccc1`: the cytotoxicity at 70.5 h was found to be 25.7%.
Take `CC(C)N1CCC(CC(=O)NC(C(=O)O)c2ccc(F)cc2)CC1` (configuration not stated): the cytotoxicity at 70.5 h was -10.8%.
As to `CCc1nnc(N2C[C@@H](CN(C)CCO)[C@@H](CO)C2)s1`, the cytotoxicity at 70.5 h was -12.4%.
For the compound `CCc1cc(C(=O)N[C@H]2CN(CCS(C)(=O)=O)C[C@@H]2C2CC2)[nH]n1`, the cytotoxicity at 70.5 h was -13.2%.
`COc1ccccc1CN1C(=O)O[C@@H]2CN(S(=O)(=O)N(C)C)C[C@@H]21`: the cytotoxicity at 70.5 h was -0.664%.
Regarding `CCc1nccn1CCCn1ccnc1-c1[nH]cnc1C`, the cytotoxicity at 70.5 h came to 5.17%.
For `COc1cccc(N2CCN(C(=O)CO)CC2=O)c1`, the cytotoxicity at 70.5 h was -2.57%.
As for `O=C(O)[C@@H]1CN(C(=O)c2ccc(F)c(F)c2)C[C@H]1c1cccc(F)c1`, the figure is -11.2%.
As for `CCCN1CC2(CCN(c3ncc(F)cn3)CC2)CC1C(=O)O` (configuration not stated), the cytotoxicity at 70.5 h was -7.12%.
For the compound `CC(C)OC(=O)N1CCC(Cc2ccc(C(=O)O)cc2)C1` (configuration not stated), the cytotoxicity at 70.5 h worked out at 27.1%.
For `C[C@@H]1CN(C2(C(=O)N3CC[C@H](O)C3)Cc3ccccc3C2)C[C@H](C)O1`, the cytotoxicity at 70.5 h is -11.9%.
On to `CC(NC(=O)C1CCCC1)c1nncn1C(C)C` (configuration not stated), for which the cytotoxicity at 70.5 h is 9.12%.
The result for `Clc1ccccc1-c1cc(CNc2ncnc3c2CCNCC3)no1` reads 12.2%; that for `O=C(CC1=CSC2=NCCN12)N1CCCC(CCc2cccc(F)c2)C1` (configuration not stated), -13.5%.
For `O=C(c1ccoc1)N1CCn2nc(CN3CCSCC3)cc2C1`, the cytotoxicity at 70.5 h is 17.6%.
As for `CCC(C)Oc1ccc(CNCCNS(C)(=O)=O)cc1Cl` (configuration not stated), the figure is -0.417%; as for `CCO[C@H]1C[C@@H](O)C12CCN(S(=O)(=O)c1ccccc1OC)CC2`, -13.9%; as for `CNc1nc(C)c(C(=O)N2CCCCC2CCN2CCOCC2)s1` (configuration not stated), -0.313%.
On to `COc1ccccc1OC1CN(C(=O)Cc2c(C)nc(N)nc2C)C1`, for which the cytotoxicity at 70.5 h was 1.7%.
With `Cc1cc(N2CCN(Cc3ccccc3)CC(O)C2)nc(N)n1` (configuration not stated), the cytotoxicity at 70.5 h was -2.11%.
As to `O=C(CCN1CCCCO1)N1CCC(CO)(CCc2ccccc2)CC1`, the cytotoxicity at 70.5 h is -10.2%.
As for `CO[C@H]1CN(C(=O)c2nc(-c3ccccc3)[nH]c2C)CC[C@H]1N`, the figure is 25.8%.
As to `CCn1ncnc1CN1CCc2[nH]cnc2C1Cc1ccccc1` (configuration not stated), the cytotoxicity at 70.5 h is -5.67%.
Take `COCCn1ccnc1C1CCN(Cc2ccccc2C#N)CC1`: the cytotoxicity at 70.5 h was -8.7%.
Turning to `Cc1ccn(CCNc2ncnc3c2CCN(c2cnccn2)CC3)n1`, the cytotoxicity at 70.5 h amounted to 2.31%.
As to `C[C@@H]1CN(Cc2cc(C3CCCCC3)no2)CC[C@@]1(O)C1CC1`, the cytotoxicity at 70.5 h came out at 6.92%.
As for `COCC(=O)N1CCc2[nH]nc(-c3ccc4c(c3)OCO4)c2C1`, the cytotoxicity at 70.5 h was -3.34%.
Take `NCc1cc(-c2ccccc2)n2nccc2n1`: the cytotoxicity at 70.5 h is -10.1%.
The result for `COc1ccc(-c2cc(CN)nc3ccnn23)cc1` reads -12.4%; that for `CSc1ccc(-c2cc(CN)nc3ccnn23)cc1`, -12.2%.
As to `CCS(=O)(=O)N1C[C@@H](OCc2cccnc2)[C@H]2OCCC[C@H]21`, the cytotoxicity at 70.5 h turned out to be 6.52%.
`CCOCC1CN(S(C)(=O)=O)Cc2cnn(CC3CCOCC3)c21` (configuration not stated): the cytotoxicity at 70.5 h is -0.335%.
For `Cn1cc(CN2C[C@@H]3COC[C@]3(CNC(=O)c3ccsc3)C2)cn1`, the cytotoxicity at 70.5 h was -5.87%.
As for `CN(C)C(=O)[C@@H]1C[C@@H]2CCN(Cc3ccc4c(c3)OCO4)C[C@@H]2O1`, the figure is 1.53%; as for `O=C(c1cnccn1)N1CCCC2(COCCN(CC3CC3)C2)C1` (configuration not stated), -20.3%.
On to `Cn1cc(CN2CCCC23CCN(C(=O)c2cccn2C)CC3)cn1`, for which the cytotoxicity at 70.5 h is -14.9%.
Consider `Cc1ccc(C(=O)N2Cc3c(CN4CCCCC4)nn(C)c3C2)cc1C`, for which the cytotoxicity at 70.5 h was -16.2%.
`O=S(=O)(C1CC1)N1CCC2(CC1)CC(Oc1cccnc1)CO2` (configuration not stated): the cytotoxicity at 70.5 h is -11.5%.
As to `CCc1ncnc2c1CCN(Cc1ccc(OC)cc1)CC2`, the cytotoxicity at 70.5 h is -8.97%.
In the case of `c1cc(CN2Cc3nnn(CC4CC4)c3C(COCC3CC3)C2)co1` (configuration not stated), the cytotoxicity at 70.5 h is -8.27%.
As for `COCC1CN(CC2CC2)Cc2nn(C)cc21` (configuration not stated), the cytotoxicity at 70.5 h was 13.1%.
As for `Cc1ccc(N2CCC3(CCCN(C(=O)c4cccnc4)C3)C2)nn1` (configuration not stated), the figure is 18.8%.
In the case of `CC(=O)N1CC(=O)N(c2ccccc2)CC12CCN(CC1CC1)C2` (configuration not stated), the cytotoxicity at 70.5 h is 7.19%.
As for `CN(C)C[C@H]1OC[C@@H]2CCN(S(=O)(=O)c3cccs3)C[C@@H]21`, the figure is 12.4%; as for `CN1CCCn2c(nc(CNC(=O)c3ccsc3)cc2=O)C1`, -15.1%.
`CN1CC(=O)N(c2cnn(C)c2)CC12CCN(C(=O)c1ccsc1)C2` (configuration not stated): the cytotoxicity at 70.5 h is -7.55%.
For `CN1CC(=O)N(c2ccsc2)CC12CCN(C(=O)c1ccccc1)C2` (configuration not stated), the cytotoxicity at 70.5 h was -12.7%.
The result for `c1ccc(CN2CCOCC3(CCN(C4CCOCC4)C3)C2)cc1` (configuration not stated) reads -2.29%; that for `c1ccc(OCc2nnc3n2CCN(CC2CCOCC2)C3)nc1`, -0.459%; that for `CN(Cc1ccco1)[C@@H]1CN(Cc2ccc(F)cc2)C[C@@H]2CCCO[C@@H]21`, 2.25%.
For the compound `Cc1cccc(CN2C[C@@H]3COC[C@]3(CNC(=O)c3ccsc3)C2)n1`, the cytotoxicity at 70.5 h was -8.41%.
Take `Cc1ccc(CN2CCCn3c(nc(CN4CCCC4)cc3=O)C2)s1`: the cytotoxicity at 70.5 h is -8.86%.
As to `Cc1nc(CN2CCO[C@H]3[C@@H](OCc4ccccn4)CC[C@@H]32)cs1`, the cytotoxicity at 70.5 h is -23.4%.
Consider `COc1ccc(CN2C[C@@H]3COC[C@]3(CN(C)C)C2)cc1`, for which the cytotoxicity at 70.5 h was -12.6%.

Source of the values: ChEMBL document CHEMBL3507680, “University of Dundee, Gates Library screen for HepG2 cell viability”.
